This is an account of results in PubChem BioAssay AID488823 (NMMLSC, 2010).

This assay concerns S. cerevisiae LAP4-GFP strain, flow cytometry fluorescence. The assay can be described thus: LAP4-GFP modulation potency, analog picks, SAR follow-up, cell-based, cherry pick 3, flow cytometry (AID 488823). On the technique in general: In flow cytometry, cells or beads pass a laser one at a time.

In general, EC50 refers to the concentration needed to bring the measured effect to its halfway point.

As for `Cc1ccc2c(Cl)cc(Cl)c(O)c2n1`, the concentration giving a half-maximal response (EC50) was 5.38 µM.
